Article PMC6208284 (Phytotherapy Research, 2018)
Read-outs that look alike come from different tables or passages of the source.

Experiments:
[1] = tested on: Leishmania tarentolae promastigotes (LtP); experiment: Immediate mitochondrial uncoupling in LtP, OxoPlates with oligomycin; assay type: cell-based; conditions: LtP + 5 μM Oligo, OxoPlates
Method: U‐shaped 96‐well OxoPlates (OP96U PreSens, Germany) with integrated fluorescence oxygen sensors were used for parallel LtP experiments. Oxygen concentrations were measured using a PerkinElmer Enspire fluorescence plate reader using excitation wavelength 540 nm and two emission wavelengths (reference dye 590 nm, IRef, and O2‐sensing dye 650 nm, IInd). The oxygen concentration (μM O2) was calculated according to manufacturer's instructions as described previously (Monzote et al., 2016). Measurements with LtP were performed in air‐saturated BHI medium. […] Immediately before the measurement, 150 μl of well‐aerated cell suspensions (13 × 10^7 LtP per ml) was added to the respective wells. Finally, on the top of each well, 50 μl of paraffin oil was layered. Two minutes after mixing, the fluorescence measurements at 27 °C were started, and eight measurements at 5‐min intervals were performed. From the linear part of the O2 decay, the slopes were calculated and corrected for the medium drift for further statistic evaluation. All measurements were performed at least in triplicate. For bioenergetic characterization, the ATP synthase inhibitor Oligo (5 μM) and as positive control CCCP (0.7–5 μM) were used. Respiratory control ratio (RCR) was calculated from respiration rate in the presence of Oligo and compounds/uncoupler divided by the rate in the presence of Oligo.

[2] = target: NADH:ubiquinone oxidoreductase (complex I), LtP‐Mit (Leishmania tarentolae, UniProt A0A640KJ43+P15576+Q34939); experiment: NADH:ubiquinone oxidoreductase (complex I) activity in LtP‐Mit, DCPIP; assay type: biochemical; conditions: for IC50: read-out: IC50 Complex I LtP‐Mit
Method: (§1) NADH:ubiquinone oxidoreductase (complex I) and succinate:ubiquinone oxidoreductase (complex II) activities were determined in 96 well‐plates using DCPIP as the electron acceptor. In each well, 200 μl of premix containing buffer (250 mM sucrose, 20 mM triethanolamine, and 1 mM EDTA, pH 7.4), DCPIP (60 μM), BSA (3.5 mg/ml for complex I and 1 mg/ml for complex II), idebenone (50 μM), and LtP‐Mit (complex I 0.17 μg/ml protein and complex II: 51 μg/ml protein) or BH‐SMP (complexes I and II: 8 μg/ml protein) were added. In addition, in the first wells, 97 μl of premix and 3 μl of EO compounds were added. Then six serial 1:3 dilutions were carried out transferring 100 μl in each step. The reaction was started by adding 50 μl of start‐mix per well, giving final concentrations of KCN (1 mM), for complex I:NADH (300 μM) or complex II:succinate (4 mM). After start of the reaction, images of the plates were recorded with a Canon EOS 300D camera (PLReader software, red–green channel) each 10 min for LtP‐Mit and 3 min for BH‐SMP (20 absorbance measurements). For each EO compound, percentage of inhibition was obtained with respect to controls (set to 100%) treated with maximum volume of vehicle (DMSO) introduced by test compound stocks.

[3] = target: NADH:ubiquinone oxidoreductase (complex I), BH‐SMP (Bos taurus, UniProt P03887+P17694+P42026); assay type: biochemical, bovine; conditions: for IC50: read-out: IC50 Complex I BH‐SMP
Method: as §1

[4] = target: T1, ubiquinol:cytochrome c oxidoreductase (complex III), BH‐SMP (Bos taurus, UniProt P00125+P00157+P13272); experiment: dUQH2:cyt c3+ oxidoreductase (complex III) activity in BH‐SMP; assay type: biochemical, bovine
T1 construct: from tissue; host or cells: bovine heart submitochondrial particles (BH-SMP)
Method: (§2) To measure the ubiquinol:cyt c ^3+ oxidoreductase (complex III) activity, the reduction of 100 μM cyt c ^3+ at 550 nm using 540 nm as reference was monitored in the presence of the artificial substrate decylubiquinol (dUQH2, 75 μM), which was prepared from dUQ by reduction (Müllebner et al., 2010). The dUQH2:cyt c ^3+ oxidoreductase activities of 40 μg protein/ml of LtP‐Mit or 3.2 μg protein/ml of BH‐SMP were measured in 1 ml of buffer containing 250 mM sucrose, 50 mM KH2PO4, 0.2 mM EDTA (pH 7.2), 2 mM KCN, and 4 mM NaN3. Respective EO compounds were added 50 s after starting the time scan, and the reaction was started after 100 s with dUQH2 and was monitored for additional 150 s. The activity of noninhibited dUQH2:cyt c ^3+ oxidoreductase activity was measured in the presence of the vehicle for the respective inhibitor (DMSO). All inhibitor concentrations were tested in triplicate. The reduction rates for cyt c ^3+ were calculated from the time trace of the absorption difference at 550 − 540 nm (ε550–540 nm = 19 mmol^−1 L cm^−1). Reduction rates in the presence of DMSO (maximum amount that was introduced by test compound stocks) were set to 100%, and the remaining activities in the presence of EO compounds were expressed in %. Three replicates were measured for each concentration.

[5] = target: ubiquinol:cytochrome c oxidoreductase (complex III), LtP‐Mit (Leishmania tarentolae, UniProt A0A640KA58+A0A640KYQ2+P14548); experiment: dUQH2:cyt c3+ oxidoreductase (complex III) activity in LtP‐Mit; assay type: biochemical
Method: as §2

[6] = tested on: Leishmania tarentolae promastigotes (LtP); experiment: Viability of LtP treated with EO main components (resazurin); assay type: cell-based
Method: LtP (200 μl, 2 × 10^6 parasites/ml) in YEM/phosphate‐buffered saline (PBS; 1:1 vol/vol, including antibiotics and 6 μM hemin) were distributed in 96‐well plates (nontreated plates). Compound stocks (in DMSO, max. 2% final concentration) were added, and five 1:3 serial dilutions were performed. Control rows with YEM/PBS (no activity) and with untreated LtP (vehicle, DMSO; 100% activity) were loaded, and the plate was incubated at 26 °C for 48 hr. Then resazurin (50 μl in PBS) was added (20 μM final concentration), and after 4 hr of incubation at 26 °C, the fluorescence of […] was measured at 560 nm excitation and 590 nm emission using a plate reader (PerkinElmer Enspire, Germany). Each compound was tested in triplicate.

[7] = target: succinate:ubiquinone oxidoreductase (complex II), LtP‐Mit (Leishmania tarentolae, UniProt A0A640KIH4+A0A640KIH8); experiment: Succinate:ubiquinone oxidoreductase (complex II) activity in LtP‐Mit, DCPIP; assay type: biochemical; conditions: for IC50: read-out: IC50 Complex II LtP‐Mit
Method: as §1

[8] = read-out: IC50 Complex III BH‐SMP
[9] = mean ± SD, three experiments, read-out: IC50 Complex III LtP‐Mit
[10] = 48 hr at 26 °C, resazurin, n = 3, read-out: IC50, viability of LtP

succinate:ubiquinone oxidoreductase (complex II), LtP‐Mit, sequence (A0A640KIH4 entry or part of it): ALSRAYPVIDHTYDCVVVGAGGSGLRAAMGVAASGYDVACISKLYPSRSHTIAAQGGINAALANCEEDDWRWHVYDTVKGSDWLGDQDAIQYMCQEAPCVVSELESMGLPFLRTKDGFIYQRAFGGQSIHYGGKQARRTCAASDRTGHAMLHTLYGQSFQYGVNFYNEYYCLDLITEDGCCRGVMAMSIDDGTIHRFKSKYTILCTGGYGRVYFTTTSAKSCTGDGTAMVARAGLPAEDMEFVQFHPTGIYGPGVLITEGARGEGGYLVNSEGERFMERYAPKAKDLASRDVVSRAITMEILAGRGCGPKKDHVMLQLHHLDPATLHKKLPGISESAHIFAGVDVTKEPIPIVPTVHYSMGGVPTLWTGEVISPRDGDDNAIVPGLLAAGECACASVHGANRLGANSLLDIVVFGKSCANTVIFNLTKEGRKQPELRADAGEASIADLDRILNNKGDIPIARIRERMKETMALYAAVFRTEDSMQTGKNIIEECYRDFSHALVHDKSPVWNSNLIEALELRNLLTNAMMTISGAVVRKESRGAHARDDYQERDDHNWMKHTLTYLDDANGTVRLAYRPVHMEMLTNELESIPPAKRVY
succinate:ubiquinone oxidoreductase (complex II), LtP‐Mit, sequence (A0A640KIH8 entry or part of it): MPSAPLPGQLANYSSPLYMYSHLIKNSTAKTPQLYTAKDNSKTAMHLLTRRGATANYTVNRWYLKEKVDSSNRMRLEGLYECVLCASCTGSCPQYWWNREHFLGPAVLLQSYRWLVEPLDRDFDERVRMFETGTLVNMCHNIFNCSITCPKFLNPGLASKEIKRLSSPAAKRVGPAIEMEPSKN
NADH:ubiquinone oxidoreductase (complex I), LtP‐Mit, sequence (Q7M3U1 entry or part of it): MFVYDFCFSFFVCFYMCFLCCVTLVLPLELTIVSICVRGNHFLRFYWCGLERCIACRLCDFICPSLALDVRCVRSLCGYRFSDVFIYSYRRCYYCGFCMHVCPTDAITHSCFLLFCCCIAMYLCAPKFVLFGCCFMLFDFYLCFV
NADH:ubiquinone oxidoreductase (complex I), LtP‐Mit, sequence (P15576 whole entry): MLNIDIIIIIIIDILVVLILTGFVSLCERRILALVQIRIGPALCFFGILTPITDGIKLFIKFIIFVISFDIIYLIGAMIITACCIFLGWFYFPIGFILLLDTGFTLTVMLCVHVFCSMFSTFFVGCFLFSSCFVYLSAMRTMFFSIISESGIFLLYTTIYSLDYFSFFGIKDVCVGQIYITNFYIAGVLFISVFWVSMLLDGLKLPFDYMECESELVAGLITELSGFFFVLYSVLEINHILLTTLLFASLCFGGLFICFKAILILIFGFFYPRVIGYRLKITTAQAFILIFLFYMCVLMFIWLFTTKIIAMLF
NADH:ubiquinone oxidoreductase (complex I), LtP‐Mit, sequence (A0A640K8W3 entry or part of it, further chain): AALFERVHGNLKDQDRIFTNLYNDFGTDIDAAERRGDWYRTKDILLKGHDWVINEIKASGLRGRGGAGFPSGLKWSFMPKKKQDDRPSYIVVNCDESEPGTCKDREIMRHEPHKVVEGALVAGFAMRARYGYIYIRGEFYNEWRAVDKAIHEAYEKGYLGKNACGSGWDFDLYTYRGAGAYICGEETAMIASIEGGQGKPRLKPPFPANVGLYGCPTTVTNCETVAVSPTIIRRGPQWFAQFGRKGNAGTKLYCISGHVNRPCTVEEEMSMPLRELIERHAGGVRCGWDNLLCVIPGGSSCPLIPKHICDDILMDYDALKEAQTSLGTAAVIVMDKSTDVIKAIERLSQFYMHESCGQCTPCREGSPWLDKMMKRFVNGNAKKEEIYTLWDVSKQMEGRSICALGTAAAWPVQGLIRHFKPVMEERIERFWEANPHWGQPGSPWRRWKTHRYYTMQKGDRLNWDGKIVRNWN
NADH:ubiquinone oxidoreductase (complex I), LtP‐Mit, sequence (P15583 whole entry, further chain): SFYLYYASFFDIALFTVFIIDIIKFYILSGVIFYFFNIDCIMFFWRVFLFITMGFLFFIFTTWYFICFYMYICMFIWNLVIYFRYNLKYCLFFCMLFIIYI
NADH:ubiquinone oxidoreductase (complex I), LtP‐Mit, sequence (Q34939 entry or part of it): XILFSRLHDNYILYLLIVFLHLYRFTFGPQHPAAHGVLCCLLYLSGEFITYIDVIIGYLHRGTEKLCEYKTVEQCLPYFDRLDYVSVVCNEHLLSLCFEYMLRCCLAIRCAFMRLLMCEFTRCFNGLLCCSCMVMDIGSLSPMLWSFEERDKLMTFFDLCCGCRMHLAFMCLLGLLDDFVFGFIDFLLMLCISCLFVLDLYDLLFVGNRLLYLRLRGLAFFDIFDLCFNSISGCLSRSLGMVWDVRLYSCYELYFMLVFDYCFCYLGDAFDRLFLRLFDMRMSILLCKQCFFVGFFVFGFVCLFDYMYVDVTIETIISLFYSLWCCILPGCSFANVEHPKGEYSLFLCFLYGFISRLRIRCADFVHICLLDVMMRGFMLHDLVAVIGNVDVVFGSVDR
NADH:ubiquinone oxidoreductase (complex I), LtP‐Mit, sequence (A0A640KJ43 entry or part of it): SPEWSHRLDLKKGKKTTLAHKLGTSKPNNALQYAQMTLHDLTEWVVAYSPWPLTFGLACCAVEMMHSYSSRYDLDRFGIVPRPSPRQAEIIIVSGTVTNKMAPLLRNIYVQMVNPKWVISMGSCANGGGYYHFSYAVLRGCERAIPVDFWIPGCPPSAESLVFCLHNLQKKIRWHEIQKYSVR
ubiquinol:cytochrome c oxidoreductase (complex III), LtP‐Mit, sequence (P14548 whole entry): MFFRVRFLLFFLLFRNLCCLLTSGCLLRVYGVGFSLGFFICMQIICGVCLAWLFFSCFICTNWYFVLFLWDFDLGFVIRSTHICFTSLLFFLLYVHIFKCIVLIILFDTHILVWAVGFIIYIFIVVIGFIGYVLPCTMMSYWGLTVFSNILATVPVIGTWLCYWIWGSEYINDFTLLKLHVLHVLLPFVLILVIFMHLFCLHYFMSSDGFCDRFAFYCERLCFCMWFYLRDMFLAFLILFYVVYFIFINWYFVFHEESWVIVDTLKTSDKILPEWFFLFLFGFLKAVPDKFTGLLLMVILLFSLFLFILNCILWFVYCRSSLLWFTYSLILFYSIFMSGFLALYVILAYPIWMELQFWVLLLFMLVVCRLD
ubiquinol:cytochrome c oxidoreductase (complex III), LtP‐Mit, sequence (A0A640KA58 entry or part of it): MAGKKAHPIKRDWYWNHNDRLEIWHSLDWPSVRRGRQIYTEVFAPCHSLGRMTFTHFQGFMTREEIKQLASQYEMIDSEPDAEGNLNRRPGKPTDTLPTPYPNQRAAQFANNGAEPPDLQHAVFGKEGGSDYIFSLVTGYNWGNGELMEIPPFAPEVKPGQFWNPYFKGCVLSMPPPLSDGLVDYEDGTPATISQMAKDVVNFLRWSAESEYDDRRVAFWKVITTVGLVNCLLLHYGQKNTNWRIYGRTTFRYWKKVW
ubiquinol:cytochrome c oxidoreductase (complex III), LtP‐Mit, sequence (A0A640KYQ2 entry or part of it): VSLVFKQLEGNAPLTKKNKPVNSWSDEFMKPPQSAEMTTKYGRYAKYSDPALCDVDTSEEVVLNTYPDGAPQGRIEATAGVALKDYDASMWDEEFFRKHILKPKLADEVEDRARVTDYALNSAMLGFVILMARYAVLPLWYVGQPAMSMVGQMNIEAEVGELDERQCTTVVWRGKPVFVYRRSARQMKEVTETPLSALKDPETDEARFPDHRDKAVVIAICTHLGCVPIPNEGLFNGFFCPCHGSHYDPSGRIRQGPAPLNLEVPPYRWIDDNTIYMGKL

Structure (SMILES)	Oxygen consumption on top of the inhibition by Oligo ([1]; highest concentration 200 μM)	% of inhibition at highest concentration tested, Complex I LtP‐Mit [2] [%]	IC50 [2] [µM]	% of inhibition at highest concentration tested, Complex I BH‐SMP [3] [%]	IC50 [3] [µM]	IC50 [4, 8] [µM]	IC50 [5, 9] [µM]	IC50 [6, 10] [µM]	% of inhibition at highest concentration tested, Complex II LtP‐Mit [7] [%]	IC50 [7] [µM]	Immediate uncoupling effect (stimulation of Oligo-inhibited oxygen consumption) [1]	IC50 [4] [µM]	% of inhibition at highest concentration tested, Complex III BH‐SMP [4] [%]	IC50 [5] [µM]	IC50 ([6]; 48 h, read-out: IC50, viability of LtP) [µM]
C=C1CC[C@H]2O[C@]2(C)CC[C@@H]2[C@@H]1CC2(C)C [Caryo, caryophyllene oxide]	totally inhibited the oxygen consumption	7.2	> 100	39.7	> 100	> 100	54.8 ± 4	36 ± 17.6	12.3	> 100					
CC(C)C12C=CC(C)(CC1)OO2 (centres unmarked) [Asc, ascaridole]		1.1	> 100	5.1	> 100				17.6	> 100	Neither Car nor Asc (Figure 6a,b) showed an uncoupling effect	> 100	17.7	131 ± 3.5	24.5 ± 3
Cc1ccc(C(C)C)cc1O [Car, carvacrol]		16.4	> 100	13.3	> 100	> 100	150 ± 2.3	11.6 ± 3.4	8.8	> 100	Neither Car nor Asc (Figure 6a,b) showed an uncoupling effect		22.8		
